In US9884836B2, “2-substituted-5-hydroxy-4H-chromen-4-ones as novel ligands for the serotonin receptor 2B (5-HT2B)” (VIRGINIA COMMONWEALTH UNIVERSITY, priority 2014, dated 2018):
Read-outs that look alike come from different tables or passages of the source.

How the values were obtained:
5-HT2B receptor [1] = target: T1, 5-HT2B receptor (Homo sapiens, UniProt P41595); assay: Binding affinity (pKi) by competitive inhibition of [3H]LSD at 5-HT2B; settings: for Ki: pKi at 5-HT2B
5-HT2B receptor [2] = target: T1, 5-HT2B receptor; assay: Primary screening: inhibition of radioligand binding at 5-HT2B (NIMH PDSP)
5-HT2A = 5-HT2A (Homo sapiens, UniProt P28223); assay: Primary screening: inhibition of radioligand binding at 5-HT2A (NIMH PDSP)
5-HT2C [3] = target: T2, 5-HT2C (Homo sapiens, UniProt P28335); assay: Primary screening: inhibition of radioligand binding at 5-HT2C (NIMH PDSP)
T2 sequence (P28335 33-458): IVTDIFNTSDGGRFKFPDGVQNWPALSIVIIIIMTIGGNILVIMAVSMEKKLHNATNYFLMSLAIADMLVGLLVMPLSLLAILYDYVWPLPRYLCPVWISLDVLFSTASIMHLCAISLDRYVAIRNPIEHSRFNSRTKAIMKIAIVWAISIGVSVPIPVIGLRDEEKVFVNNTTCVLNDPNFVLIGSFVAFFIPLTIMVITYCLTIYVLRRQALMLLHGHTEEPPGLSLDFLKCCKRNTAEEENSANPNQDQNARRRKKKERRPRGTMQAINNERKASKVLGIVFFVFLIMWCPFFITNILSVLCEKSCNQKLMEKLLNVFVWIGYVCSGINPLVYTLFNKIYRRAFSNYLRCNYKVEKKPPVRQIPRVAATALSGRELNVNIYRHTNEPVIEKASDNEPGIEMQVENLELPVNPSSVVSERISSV

5-HT2B receptor [4] = target: T1, 5-HT2B receptor; assay: Calcium mobilization assay in Flp-In HEK cells (agonist/antagonist functional activity); settings: compound at 10 μM
5-HT2C [5] = target: T2, 5-HT2C; assay: Binding affinity (pKi) at 5-HT2C
[6] = read-out: % Inhibition of radioligand binding 5-HT2B
[7] = read-out: inhibitory activity at 5-HT2B
[8] = read-out: % Inhibition of radioligand binding 5-HT2A
[9] = read-out: % Inhibition of radioligand binding 5-HT2C

T1 sequence (P41595 whole entry): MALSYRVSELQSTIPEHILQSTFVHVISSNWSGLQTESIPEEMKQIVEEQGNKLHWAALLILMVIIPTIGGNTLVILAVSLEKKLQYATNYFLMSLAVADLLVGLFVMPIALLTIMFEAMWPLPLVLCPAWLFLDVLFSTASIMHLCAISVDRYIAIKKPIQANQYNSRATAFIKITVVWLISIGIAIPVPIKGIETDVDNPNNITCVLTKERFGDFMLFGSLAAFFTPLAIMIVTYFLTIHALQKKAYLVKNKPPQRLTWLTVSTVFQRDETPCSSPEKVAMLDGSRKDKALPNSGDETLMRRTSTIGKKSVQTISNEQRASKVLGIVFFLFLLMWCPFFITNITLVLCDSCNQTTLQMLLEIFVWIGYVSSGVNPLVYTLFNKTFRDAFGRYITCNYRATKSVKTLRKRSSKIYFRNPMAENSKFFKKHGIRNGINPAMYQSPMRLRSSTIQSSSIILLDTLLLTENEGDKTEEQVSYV
5-HT2A, sequence (P28223 whole entry, species assumed): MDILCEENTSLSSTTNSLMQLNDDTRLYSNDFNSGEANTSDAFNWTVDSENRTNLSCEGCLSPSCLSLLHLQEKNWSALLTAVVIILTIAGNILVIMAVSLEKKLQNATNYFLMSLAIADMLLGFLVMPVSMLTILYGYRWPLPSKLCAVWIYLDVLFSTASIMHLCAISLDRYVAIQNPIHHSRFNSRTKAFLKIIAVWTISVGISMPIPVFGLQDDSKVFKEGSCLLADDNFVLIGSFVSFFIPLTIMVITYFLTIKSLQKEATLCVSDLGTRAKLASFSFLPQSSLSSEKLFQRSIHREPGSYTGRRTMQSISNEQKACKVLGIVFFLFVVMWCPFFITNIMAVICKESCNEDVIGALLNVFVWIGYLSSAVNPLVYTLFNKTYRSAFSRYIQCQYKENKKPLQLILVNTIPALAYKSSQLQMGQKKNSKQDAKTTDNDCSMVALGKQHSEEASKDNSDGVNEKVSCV

| SMILES | Ki (5-HT2B receptor [1]; Table 7) [nM] | inhibition at 10 µM (5-HT2B receptor [2]; read-out: % Inhibition 5-HT2B) [%] | inhibition at 10 µM (5-HT2B receptor [2]; [6]) [%] | inhibition at 10 µM (5-HT2A; read-out: % Inhibition 5-HT2A) [%] | inhibition at 10 µM (5-HT2A; [8]) [%] | inhibition at 10 µM (5-HT2C [3]; read-out: % Inhibition 5-HT2C) [%] | inhibition at 10 µM (5-HT2C [3]; [9]) [%] | also measured |
| --- | --- | --- | --- | --- | --- | --- | --- | --- |
| O=c1cc(COc2ccccc2)oc2cccc(O)c12 [Compound 22a, 5-hydroxy-2-(phenoxymethyl)-4H-chromen-4-one] | > 10000 | 50 | 50 | 0.2 | 0.2 | 7.8 | 7 | Ki (5-HT2B receptor [1]): > 10000 nM; inhibition at 10 µM (5-HT2B receptor [2]; [7]): 50% |
| O=c1cc(CCc2ccccc2O)oc2cccc(O)c12 [Compound 22b, 5-hydroxy-2-(2-hydroxyphenethyl)-4H-chromen-4-one] |  |  | 12.8 |  | 24.3 |  | 23.8 |  |
| O=c1cc(CCc2cccc(O)c2)oc2cccc(O)c12 [Compound 22c, 5-Hydroxy-2-(3′-hydroxy-2-phenylethyl)chromone] | 1290 |  | 76.3 |  | 39 |  | 30.4 | pKi at 5-HT2B (5-HT2B receptor [1]): 5.9; inhibition at 10 µM (5-HT2B receptor [2]; [7]): 76% |
| O=c1cc(CCc2cccs2)oc2cccc(O)c12 [Compound 22e, 5-hydroxy-2-(2-(thiophen-2-yl)ethyl)-4H-chromen-4-one] | 1050 | 74.8 | 74.8 | 1.4 | 1.4 | 19.6 | 19.6 | Ki (5-HT2B receptor [1]): 1260 nM |
| O=c1cc(CCc2ccco2)oc2cccc(O)c12 [Compound 22f, 5-Hydroxy-2-(2-(furan-2-yl)ethyl)chromone] | 1820 |  | 68.8 |  | 12.4 |  | 24.2 | pKi at 5-HT2B (5-HT2B receptor [1]): 5.7 |
| O=c1cc(Cc2ccccc2)oc2cccc(O)c12 [Compound 22g, 2-benzyl-5-hydroxy-4H-chromen-4-one] |  | 30.6 | 30.6 | 1.4 | 1.4 | 24.8 | 24.8 |  |
| O=c1cc(CCCc2ccccc2)oc2cccc(O)c12 [Compound 22h, 5-hydroxy-2-(3-phenylpropyl)-4H-chromen-4-one] | 240 | 70.4 | 70.4 | 5.4 | 5.4 | 7.9 | 7.9 | pKi at 5-HT2B (5-HT2B receptor [1]): 6.6; antagonist activity (5-HT2B receptor [4]; challenged with an EC50 dose (1.6 nM) of 5-HT): 20.5±0.5 % inhibition; agonist activity (5-HT2B receptor [4]; compared to 5-HT): 0.23±0.2 % of the maximal response |
| O=c1cc(CCCCc2ccccc2)oc2cccc(O)c12 [Compound 22i, 5-hydroxy-2-(4-phenylbutyl)-4H-chromen-4-one] |  | 45.2 | 45.2 | 5.7 | 5.7 | 14.7 | 14.7 |  |
| O=c1cc(COCc2ccccc2)oc2cccc(O)c12 [Compound 22j, 5-hydroxy-2-((benzyloxy)methyl)chromone] |  |  | 77.7 |  | 3.2 |  | 42.1 | pKi at 5-HT2B (5-HT2B receptor [1]; Table 7): 5.8 ± 0.05; fold decrease in 5-HT2B affinity compared to 5-HPPC (22h) (5-HT2B receptor [1]; relative to 5-HPPC): 6 fold; inhibition at 10 µM (5-HT2B receptor [2]; [7]): 78% |
| O=c1cc(CCc2ccccc2)oc2cc(O)ccc12 [Compound 22k, 7-hydroxy-2-phenethyl-4H-chromen-4-one] |  |  | 34.2 |  | 35.5 |  | 33.7 |  |
| O=c1cc(CC(O)c2ccccc2)oc2cc(O)ccc12 (stereo not drawn) [Compound 22l, 7-Hydroxy-2-(2′-hydroxy-2-phenylethyl)chromone] |  |  | 16.6 |  | 47.9 |  | 44 |  |
| O=c1cc(CCc2cccc(O)c2)oc2cc(O)ccc12 [Compound 22m, 7-Hydroxy-2-(3′-hydroxy-2-phenylethyl)chromone] |  |  | 25.3 |  | 23.2 |  | 0 |  |
| O=c1cc(CCc2ccc(O)cc2)oc2cc(O)ccc12 [Compound 22n, 7-Hydroxy-2-(4′-hydroxy-2-phenylethyl)chromone] |  |  | 40.8 |  | 33.3 |  | 53.1 | Ki (5-HT2C [5]): 2510 nM; Ki (5-HT2C [5]; Table 7): 2450 nM; inhibition at 10 µM (5-HT2C [3]; read-out: inhibitory activity at 5-HT2C): 53% |
| O=c1cc(COc2ccc3ccccc3c2)oc2cccc(O)c12 [Compound 22o, 5-hydroxy-2-((naphthalen-2-yloxy)methyl)chromone] |  |  | 2.9 |  | -3 |  | -0.7 |  |
| O=c1cc(COc2cccc3ccccc23)oc2cccc(O)c12 [Compound 22p, 5-hydroxy-2-((naphthalen-1-yloxy)methyl)chromone] |  |  | 11.8 |  | -1.1 |  | 0.7 |  |
| O=c1cc(Cc2cccc3ccccc23)oc2cccc(O)c12 [Compound 22q, 5-hydroxy-2-(naphthalen-1-ylmethyl)chromone] |  |  | 17.4 |  | 9.5 |  | 2.1 |  |
| O=c1cc(Cc2cccs2)oc2cccc(O)c12 [Compound 22r, 5-hydroxy-2-(thiophen-2-ylmethyl)-4H-chromen-4-one] |  | 31.5 | 31.5 | -4.5 | -4.5 | 23.5 | 23.5 |  |
| O=c1cc(COCCc2ccccc2)oc2cccc(O)c12 [Compound 22s, 5-hydroxy-2-(phenethoxymethyl)chromone] | 1260 |  | 77.7 |  | 0.3 |  | 11.7 |  |
